Test results from ChEMBL document CHEMBL3352232, “Discovery of pyridyl sulfonamide 11-beta-hydroxysteroid dehydrogenase type 1 (11β-HSD1) inhibitors for the treatment of metabolic disorders” (Bioorg Med Chem Lett, 2014).
Values after ≈ are worked out from the molar mass of the structure shown.

Columns and labels:
[1] = target: 11-beta-hydroxysteroid dehydrogenase 1 (Homo sapiens, UniProt P28845); test: Inhibition of human 11-betaHSD1 by biochemical assay
[2] = Aqueous solubility of the compound; format: physicochemical
[3] = Stability in mouse liver microsomes assessed as compound remaining after 10 mins; format: ADME; details: read-out: Stability
[4] = Stability in rat liver microsomes assessed as compound remaining after 10 mins; format: ADME; details: read-out: Stability
[5] = Stability in human liver microsomes assessed as compound remaining after 10 mins; format: ADME; details: read-out: Stability
[6] = target: 11-beta-hydroxysteroid dehydrogenase 1 (Mus musculus, UniProt P50172); test: Inhibition of mouse 11-betaHSD1 by biochemical assay
Chain of 11-beta-hydroxysteroid dehydrogenase 1 (Mus musculus, UniProt P50172) (P50172 whole entry): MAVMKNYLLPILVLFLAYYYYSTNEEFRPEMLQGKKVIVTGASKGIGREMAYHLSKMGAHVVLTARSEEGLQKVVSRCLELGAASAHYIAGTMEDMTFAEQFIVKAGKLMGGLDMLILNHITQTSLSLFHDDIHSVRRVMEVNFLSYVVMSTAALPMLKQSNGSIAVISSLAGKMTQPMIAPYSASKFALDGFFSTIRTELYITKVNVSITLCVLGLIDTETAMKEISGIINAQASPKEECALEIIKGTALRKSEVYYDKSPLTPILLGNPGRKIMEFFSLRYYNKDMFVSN

Chain of 11-beta-hydroxysteroid dehydrogenase 1 (Homo sapiens, UniProt P28845) (P28845 whole entry): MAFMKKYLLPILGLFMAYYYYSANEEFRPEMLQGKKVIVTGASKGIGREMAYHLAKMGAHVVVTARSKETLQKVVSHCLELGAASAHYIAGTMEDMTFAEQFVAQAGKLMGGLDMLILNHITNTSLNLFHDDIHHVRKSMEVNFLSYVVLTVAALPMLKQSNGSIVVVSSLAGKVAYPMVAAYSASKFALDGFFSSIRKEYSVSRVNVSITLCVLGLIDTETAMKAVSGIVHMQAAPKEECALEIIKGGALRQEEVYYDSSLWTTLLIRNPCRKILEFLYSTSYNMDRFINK

Compound | IC50 [1] [nM] | solubility [2] [µg/mL] | remaining at 10 min [3] [%] | remaining at 10 min [4] [%] | remaining at 10 min [5] [%] | IC50 [6]
CC1CCN(C(=O)c2ccc(CSc3ccc(Cl)cc3)cc2)CC1 | 160 |  |  |  |  | 
CC1CCN(S(=O)(=O)c2cccc(-c3cccc(Cl)c3)n2)CC1 | 310 | 1 (≈ 2.85 µM) |  |  |  | 
CC1CCN(S(=O)(=O)c2cccc(-c3ccc(C#N)cc3)n2)CC1 | 49 | 2 (≈ 5.86 µM) |  |  |  | 
N#Cc1ccc(-c2cccc(S(=O)(=O)N3CCC(N4CCCC4)CC3)n2)cc1 | 980 | 270 (≈ 681 µM) |  |  |  | 

Further compounds by falling IC50 [1], results first:

IC50 [1] [nM] | solubility [2] [µg/mL] | remaining at 10 min [3] [%] | remaining at 10 min [4] [%] | remaining at 10 min [5] [%] | IC50 [6] | Compound
160 | 14 (≈ 35.1 µM) |  |  |  |  | N#Cc1ccc(-c2cccc(S(=O)(=O)N3CCC(N4CCOCC4)C3)n2)cc1 (centres undefined)
55 | 1 (≈ 2.85 µM) |  |  |  |  | CC1CCN(S(=O)(=O)c2cccc(-c3ccc(Cl)cc3)n2)CC1
30 | 48 (≈ 124 µM) | 7 | 4 | 62 | Not Active | O=S(=O)(c1cccc(-c2ccccc2)n1)N1CCC(N2CCOCC2)CC1
9 | < 1 |  |  |  |  | N#Cc1ccc(-c2cccc(S(=O)(=O)N3CCC(C4CCCCC4)CC3)n2)cc1
